18 compounds from patent US5008245A (University of Kentucky Research Foundation, priority 1988, dated 1991) can be followed below.

Usually Ki stands for the equilibrium dissociation constant of an inhibitor or competing ligand from its target.

Common to all, as to type: biochemical
For assay [1], the target named is T1, HLE (human leukocyte elastase) (Homo sapiens, UniProt P08246).
T1 sequence (P08246 30-267): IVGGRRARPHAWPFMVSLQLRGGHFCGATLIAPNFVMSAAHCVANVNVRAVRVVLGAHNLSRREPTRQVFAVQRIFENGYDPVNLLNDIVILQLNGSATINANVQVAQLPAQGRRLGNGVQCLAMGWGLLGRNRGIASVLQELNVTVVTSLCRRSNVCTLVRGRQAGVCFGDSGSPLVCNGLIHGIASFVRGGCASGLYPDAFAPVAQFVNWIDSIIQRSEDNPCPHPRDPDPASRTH
As to the kind of experiment: Inhibition of HLE by desmosine-like peptidyl carbamates, steady state kinetics (Dixon plot, Lineweaver-Burk slope replot). On the procedure: ^c Lines contained linear regression analysis correlations of >0.950.
^d Ki values determined from LineweaverBurk slope replots. Slope
were obtained from lines with linear regression analysis correlations of
^a Ki value was determined by steady state kinetics.
(§1) These studies are conducted to show the activities of some of the compounds of this invention as inhibitors of various forms of the enzyme elastase.

Assay [2] concerns the target PPE (porcine pancreatic elastase) (Sus scrofa, UniProt P00772). As to the kind of experiment: Inhibition of PPE by peptidyl carbamates. Conditions: Ex. 67 table, N.I. = no inhibition at I/E = 100. The protocol:
as §1
^c N.I. refers to no inhibition at I/E = 100.

The target of assay [3] is enzyme elastase. As to the kind of experiment: Inhibition of the enzyme elastase, Ki / inhibitor dissociation constants. Conditions: p-nitrophenyl at P1 replaced by N-phenylthiotetrazole.
Where [4] appears, read: Table 1, variations in P4, Dixon plot, linear regression correlations >0.950, read-out: Ki value (μM) Dixon.
[5] abbreviates: Table 1, variations in P4, Lineweaver-Burk slope replots, correlations >0.990, read-out: Ki value (μM) Replot.
Where [6] appears, read: Ki values (μM) Dixon, Table 2, variations in P3, Dixon plot, linear regression correlations >0.950.
[7] abbreviates: Ki values (μM) Replot, Table 2, variations in P3, Lineweaver-Burk slope replots, correlations >0.990.
Where [8] appears, read: Table 2, variations in P3, Dixon plot, linear regression correlations >0.950, read-out: Ki values (μM) Dixon.
Setting [9] is: Table 2, variations in P3, Lineweaver-Burk slope replots, correlations >0.990, read-out: Ki values (μM) Replot.

Like-named read-outs stand apart in the source and are kept apart here.

Sequence of PPE (porcine pancreatic elastase) (P00772 27-266): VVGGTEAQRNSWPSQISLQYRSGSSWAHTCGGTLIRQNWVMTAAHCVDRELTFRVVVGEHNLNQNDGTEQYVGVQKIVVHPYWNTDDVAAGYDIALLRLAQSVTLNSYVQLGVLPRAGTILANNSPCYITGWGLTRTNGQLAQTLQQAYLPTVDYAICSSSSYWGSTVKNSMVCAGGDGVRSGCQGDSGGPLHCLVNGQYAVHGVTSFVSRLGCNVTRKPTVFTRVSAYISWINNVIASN

Take `COC(=O)CCC(=O)NC(CCCCNC(=O)OCc1ccccc1)C(=O)NC(C)C(=O)N1CCCC1C(=O)CN(C(=O)Oc1ccc([N+](=O)[O-])cc1)C(C)C` (single isomer, unassigned) [Compound 44a, p-Nitrophenyl N-[Methoxysuccinyl-(Nε -carbobenzoxy)lysylalanylprolylmethyl]-N-isopropylcarbamate]: the Ki in assay [1] (setting [4]) stood at 0.56 µM; in assay [1] (setting [5]), 0.47 µM. Besides, the “Ki (μM) PPE” value in assay [2] (variations at P4) is listed as “N.I”.
Consider `COC(=O)CCC(=O)NC(CCCCNC(=O)OCc1ccccc1)C(=O)NC(C)C(=O)N1CCCC1C(=O)CN(C(=O)Oc1ccc([N+](=O)[O-])cc1)C(C)C` (single isomer, unassigned) [Compound 44b, p-Nitrophenyl N-[Methoxysuccinyl-(Nε -carbobenzoxy)lysylalanylprolylmethyl]-N-isopropylcarbamate], for which the inhibitory constant (Ki) in assay [1] (setting [4]) stood at 7.3 µM; in assay [1] (setting [5]) it was 7.63 µM. In assay [2] (variations at P4), the “Ki (μM) PPE” value is given as “N.I”.
On the same counts, the results for `COC(=O)CCC(=O)NC(CCCCNC(=O)c1ccccc1)C(=O)NC(C)C(=O)N1CCCC1C(=O)CN(C(=O)Oc1ccc([N+](=O)[O-])cc1)C(C)C` (single isomer, unassigned) [Compound 45a, p-Nitrophenyl N-[Methoxysuccinyl-(Nε -benzoyl)lysylalanylprolylmethyl]-N-isopropylcarbamate] are 0.73 µM, 0.38 µM and “N.I”.
Take `COC(=O)CCC(=O)NC(CCCCNC(=O)c1ccccc1)C(=O)NC(C)C(=O)N1CCCC1C(=O)CN(C(=O)Oc1ccc([N+](=O)[O-])cc1)C(C)C` (single isomer, unassigned) [Compound 45b, p-Nitrophenyl N-[Methoxysuccinyl-(Nε -benzoyl)lysylalanylprolylmethyl]-N-isopropylcarbamate]: the figures for the inhibition constant (Ki) in assay [1] (setting [4]) and in assay [1] (setting [5]) were 3.7 µM and 3.13 µM, respectively. Moreover, the “Ki (μM) PPE” value in assay [2] (variations at P4) is listed as “N.I”.
On to `COC(=O)CCC(=O)NC(CCCNC(=O)OCc1ccccc1)C(=O)NC(C)C(=O)N1CCCC1C(=O)CN(C(=O)Oc1ccc([N+](=O)[O-])cc1)C(C)C` (single isomer, unassigned) [Compound 46a, p-Nitrophenyl N-[Methoxysuccinyl-(Nδ -carbobenzoxy)ornithylalanylprolylmethyl]-N-isopropylcarbamate], for which the Ki was found to be 0.65 µM in assay [1] (Ex. 67 table, variations at P4, read-out: Ki (μM) HLE); 0.43 µM in assay [1] (setting [4]); 0.36 µM in assay [1] (setting [5]). Besides, in assay [2] (variations at P4), the “Ki (μM) PPE” value is on record as “N.I”.
Take `COC(=O)CCC(=O)NC(CCCNC(=O)OCc1ccccc1)C(=O)NC(C)C(=O)N1CCCC1C(=O)CN(C(=O)Oc1ccc([N+](=O)[O-])cc1)C(C)C` (single isomer, unassigned) [Compound 46b, p-Nitrophenyl N-[Methoxysuccinyl-(Nδ -carbobenzoxy)ornithylalanylprolylmethyl]-N-isopropylcarbamate]: the inhibition constant Ki was found to be 8.8 µM in assay [1] (setting [4]) and 7.95 µM in assay [1] (setting [5]). Besides, the “Ki (μM) PPE” value in assay [2] (variations at P4) is given as “N.I”.
As for `COC(=O)CCC(=O)N[C@@H](C)C(=O)N[C@@H](CCCCNC(=O)OCc1ccccc1)C(=O)N1CCC[C@@H]1C(=O)CN(C(=O)Oc1ccc([N+](=O)[O-])cc1)C(C)C` [Compound 48b], the Ki amounted to 11.3 µM in assay [1] (Ki (μM) HLE, Ex. 67 table, variations at P3); 20.4 µM in assay [1] (setting [6]); 11.3 µM in assay [1] (setting [7]). For the same compound, the “Ki (μM) PPE” value in assay [2] (variations at P3) is given as “N.I”.
As to `COC(=O)CCC(=O)N[C@@H](C)C(=O)N[C@@H](CCCCNC(=O)c1ccccc1)C(=O)N1CCC[C@H]1C(=O)CN(C(=O)Oc1ccc([N+](=O)[O-])cc1)C(C)C` [Compound 49a], the Ki in assay [1] (setting [8]) worked out at 1.6 µM; in assay [1] (setting [9]) it was 0.31 µM; in assay [2] (variations at P3), 3.8 µM.
For the compound `COC(=O)CCC(=O)N[C@@H](C)C(=O)N[C@@H](CCCCNC(=O)c1ccccc1)C(=O)N1CCC[C@H]1C(=O)CN(C(=O)Oc1ccc([N+](=O)[O-])cc1)C(C)C` [Compound 49b], the figures for the inhibition constant (Ki) in assay [1] (setting [8]) and in assay [1] (setting [9]) were 34 µM and 38.5 µM, respectively. Also, in assay [2] (variations at P3), the “Ki (μM) PPE” value is “N.I”.
For the compound `COC(=O)CCC(=O)NC(C)C(=O)NC(CCCNC(=O)OCc1ccccc1)C(=O)N1CCCC1C(=O)CN(C(=O)Oc1ccc([N+](=O)[O-])cc1)C(C)C` (stereo not shown) [Compound 50b, p-Nitrophenyl N-[Methoxysuccinylalanyl-(Nδ -carbobenzoxy)ornithylprolymethyl]-N-isopropylcarbamate], the Ki in assay [1] (setting [8]) stood at 22.2 µM; in assay [1] (setting [9]) it was 19.2 µM. In assay [2] (variations at P3), the “Ki (μM) PPE” value was “N.I”.
With `COC(=O)CCC(=O)NC(C)C(=O)NC(CCCNC(=O)c1ccccc1)C(=O)N1CCCC1C(=O)CN(C(=O)Oc1ccc([N+](=O)[O-])cc1)C(C)C` (stereo not shown) [Compound 51a], the figures for the Ki in assay [1] (setting [8]), in assay [1] (setting [9]) and in assay [2] (variations at P3) were 5.33 µM, 2.14 µM and 14.3 µM, respectively.
For `COC(=O)CCC(=O)N[C@@H](C)C(=O)N[C@@H](CCCNC(=O)c1ccccc1)C(=O)N1CCC[C@@H]1C(=O)CN(C(=O)Oc1ccc([N+](=O)[O-])cc1)C(C)C` [Compound 51b], the Ki in assay [1] (setting [6]) is 104 µM; in assay [1] (setting [7]) it was 100 µM. The “Ki (μM) PPE” value in assay [2] (variations at P3) is recorded as “N.I”.
In turn, `COC(=O)CCC(=O)NC(C)C(=O)NC(CCCCNC(=O)OCc1ccccc1)C(=O)N1CCCC1C(=O)CN(C(=O)Sc1nnnn1-c1ccccc1)C(C)C` (stereo not drawn) [PC5, S-(1-Phenyl-5-tetrazoyl)-N-[methoxysuccinyl-alanyl-(N6-carbonbenzoxyl)lysylprolylmethyl]-N-isopropyl thiocarbamate] yielded a Ki in assay [3] of 20 nM.
In assay [3], `COC(=O)CCC(=O)NC(CCCNC(=O)OCc1ccccc1)C(=O)NC(C)C(=O)N1CCCC1C(=O)CN(C(=O)Sc1nnnn1-c1ccccc1)C(C)C` (stereo not drawn) [PC6, S-(1-Phenyl-5-tetrazoyl)-N-[methoxysuccinyl-Nδ-carbobenzoxyl) ornithyl alanyl prolyl methyl]-N-isopropyl thiocarbamate] gave an inhibitory constant (Ki) of 3 nM.
As for “p-Nitrophenyl N-[Methoxysuccinyl-(Nδ -benzoyl)ornithylalanylprolylmethyl]-N-isopropylcarbamate [Compound 47a]”, the values for the inhibition constant Ki in assay [1] (setting [4]) and in assay [1] (setting [5]) were 0.65 µM and 0.19 µM, respectively. The “Ki (μM) PPE” value in assay [2] (variations at P4) is “N.I”.
“p-Nitrophenyl N-[Methoxysuccinyl-(Nδ -benzoyl)ornithylalanylprolylmethyl]-N-isopropylcarbamate [Compound 47b]”: the Ki was 10 µM in assay [1] (setting [4]) and 17.7 µM in assay [1] (setting [5]). In addition, in assay [2] (variations at P4), the “Ki (μM) PPE” value is listed as “N.I”.
Turning to “p-Nitrophenyl N-[Methoxysuccinyl-(Nδ -carbobenzoxy)lysylprolylmethyl]-N-isopropylcarbamate [Compound 48a]”, the figures for the inhibition constant (Ki) in assay [1] (setting [8]), in assay [1] (setting [9]) and in assay [2] (variations at P3) were 1.1 µM, 0.22 µM and 3.4 µM, respectively.
With “p-Nitrophenyl N-[Methoxysuccinylalanyl-Nδ -carbobenzoxy)ornithylprolylmethyl]-N-isopropylcarbamate [Compound 50a]”, the Ki came to 0.75 µM in assay [1] (setting [8]), 1.05 µM in assay [1] (setting [9]) and 8.65 µM in assay [2] (variations at P3).
